Test results taken from ChEMBL document CHEMBL5241083, “Lysophosphatidic acid (LPA) receptor modulators: Structural features and recent development” (Eur J Med Chem, 2021).

Assays:
[1] = biological target: T1, Lysophosphatidic acid receptor 2 (Homo sapiens, UniProt Q9HBW0); experiment: Antagonist activity at human LPA2 receptor assessed as inhibition of LPA-induced calcium release
[2] = biological target: T1, Lysophosphatidic acid receptor 2; experiment: Antagonist activity at LPA2 receptor (unknown origin)
[3] = biological target: T2, Lysophosphatidic acid receptor 1 (Homo sapiens, UniProt Q92633); experiment: Antagonist activity at human LPA1 receptor
[4] = biological target: T1, Lysophosphatidic acid receptor 2; experiment: Inhibition of LPA2 receptor (unknown origin)
HEK-293T = experiment: Antiproliferative activity against human HEK293T cells assessed as inhibition of cell growth; type: functional, cell-based
[5] = biological target: T2, Lysophosphatidic acid receptor 1; experiment: Antagonist activity at human LPA1 receptor expressed in CHO cells; type: cell-based
[6] = biological target: T3, Lysophosphatidic acid receptor 3 (Homo sapiens, UniProt Q9UBY5); experiment: Antagonist activity at human LPA3 receptor; type: cell-based, CHO
T3 sequence (Q9UBY5 whole entry): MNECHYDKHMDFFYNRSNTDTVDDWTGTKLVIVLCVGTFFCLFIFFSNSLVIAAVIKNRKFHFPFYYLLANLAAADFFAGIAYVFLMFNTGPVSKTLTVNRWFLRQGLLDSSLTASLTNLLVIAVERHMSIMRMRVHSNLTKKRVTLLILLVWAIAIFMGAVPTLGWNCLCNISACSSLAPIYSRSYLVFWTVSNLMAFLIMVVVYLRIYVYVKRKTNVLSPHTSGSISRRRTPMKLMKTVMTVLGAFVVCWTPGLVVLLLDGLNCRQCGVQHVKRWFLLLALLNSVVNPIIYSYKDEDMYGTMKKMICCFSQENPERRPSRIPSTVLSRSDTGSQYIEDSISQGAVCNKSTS

[7] = biological target: T4, Lysophosphatidic acid receptor 5 (Homo sapiens, UniProt Q9H1C0); experiment: Antagonist activity at human LPA5 receptor by FLIPR analysis
[8] = biological target: T4, Lysophosphatidic acid receptor 5; experiment: Antagonist activity at human LPA5 receptor assessed as inhibition of […] cAMP accumulation incubated for 20 mins
[9] = biological target: T4, Lysophosphatidic acid receptor 5; experiment: Antagonist activity at human LPA5 receptor expressed in CHO cells assessed as inhibition of LPA stimulated calcium release incubated for 20 mins followed by […] and measured for 90 seconds; type: cell-based
[10] = biological target: T2, Lysophosphatidic acid receptor 1; experiment: Antagonist activity at LPA1 receptor (unknown origin) assessed as inhibition constant

T4 sequence (Q9H1C0 whole entry): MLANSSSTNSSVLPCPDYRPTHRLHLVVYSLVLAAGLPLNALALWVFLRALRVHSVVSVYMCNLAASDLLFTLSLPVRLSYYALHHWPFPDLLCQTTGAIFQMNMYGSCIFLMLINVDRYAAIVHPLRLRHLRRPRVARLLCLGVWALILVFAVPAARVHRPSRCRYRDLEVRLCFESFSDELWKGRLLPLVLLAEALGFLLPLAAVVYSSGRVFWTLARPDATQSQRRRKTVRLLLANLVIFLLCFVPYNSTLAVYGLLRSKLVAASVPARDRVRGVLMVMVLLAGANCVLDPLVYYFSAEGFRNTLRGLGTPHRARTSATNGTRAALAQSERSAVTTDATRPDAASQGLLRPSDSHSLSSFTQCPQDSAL
T2 sequence (Q92633 whole entry): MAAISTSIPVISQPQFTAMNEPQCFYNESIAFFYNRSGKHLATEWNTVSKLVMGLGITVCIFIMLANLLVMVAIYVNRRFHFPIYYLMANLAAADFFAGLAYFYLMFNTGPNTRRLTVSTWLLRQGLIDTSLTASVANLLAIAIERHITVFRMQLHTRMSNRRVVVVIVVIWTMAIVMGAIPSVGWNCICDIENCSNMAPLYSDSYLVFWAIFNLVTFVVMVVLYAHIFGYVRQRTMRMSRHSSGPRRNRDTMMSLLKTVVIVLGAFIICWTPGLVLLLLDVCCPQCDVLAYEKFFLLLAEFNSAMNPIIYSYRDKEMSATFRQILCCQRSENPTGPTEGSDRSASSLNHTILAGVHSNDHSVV
T1 sequence (Q9HBW0 whole entry): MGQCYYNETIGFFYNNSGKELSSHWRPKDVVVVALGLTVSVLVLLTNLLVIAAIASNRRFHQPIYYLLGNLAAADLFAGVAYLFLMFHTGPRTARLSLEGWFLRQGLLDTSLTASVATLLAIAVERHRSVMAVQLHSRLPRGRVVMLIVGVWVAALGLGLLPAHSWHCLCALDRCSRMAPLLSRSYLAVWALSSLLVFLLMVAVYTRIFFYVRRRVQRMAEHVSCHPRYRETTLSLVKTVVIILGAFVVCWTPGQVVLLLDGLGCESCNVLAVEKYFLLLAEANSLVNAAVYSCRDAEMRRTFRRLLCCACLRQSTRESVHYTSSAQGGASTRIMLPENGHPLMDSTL

## O=C1CC(O)(C(F)(F)F)c2c(-c3cccc(C(F)(F)F)c3)n[nH]c2N1 (stereo not given)
[1]
  IC50: < 1000 nM

## Cc1cccc(CN2C(C)CCCC2c2cc3cc(F)ccc3[nH]2)c1 (stereo not given)
[2]
  IC50: < 500 nM

## Fc1ccc(CN2CCCCC2c2cc3ccccc3[nH]2)cc1 (stereo not given)
[2]
  IC50: < 500 nM

## COc1cc(C(=O)N(CCCc2ccccc2)Cc2ccc(Oc3ccccc3C(=O)O)cc2)cc(OC)c1OC
[3]
  IC50: 110 nM

## COc1ccc(C(=O)NC2(C(=O)O)CCCCCC2)cc1OCCc1cc(Cl)ccc1F
[3]
  IC50: 100 nM

## O=C(Nc1nc2cc(Cl)ccc2[nH]1)C1CC1c1ccccc1 (stereo not given)
[4]
  IC50: 10 nM

## O=C1CC(O)(C(F)(F)F)c2c(-c3cccc(Cl)c3)n[nH]c2N1 (stereo not given)
[1]
  IC50: < 1000 nM

## COc1ccc(-c2n[nH]c3c2C(O)(C(F)(F)F)CC(=O)N3)cc1 (stereo not given)
[1]
  IC50: < 1000 nM

## COc1cccc(-c2n[nH]c3c2C(O)(C(F)(F)F)CC(=O)N3)c1 (stereo not given)
[1]
  IC50: < 1000 nM

## Cc1ccc(-c2n[nH]c3c2C(O)(C(F)(F)F)CC(=O)N3)cc1 (stereo not given)
[1]
  IC50: < 1000 nM

## COc1ccc(C(=O)NC2(C(=O)O)CC3CCC(C3)C2)cc1OCCc1cccc(C)c1 (stereo not given)
[3]
  IC50: 100 nM

## CCCCCCCC/C=C/CCCCCCCC(=O)N[C@H](COP(=O)(O)O)Cc1ccc(OCc2ccccc2)cc1
HEK-293T
  IC50: 130 nM

## Cc1cccc(C2CC2C(=O)Nc2nc3ccccc3[nH]2)c1 (stereo not given)
[4]
  IC50: 10 nM

## Cc1noc(-c2ccc(-c3ccc(CC(=O)O)c4c3CCC4)cc2)c1NC(=O)OC(C)c1ccccc1Cl (stereo not given)
[5]
  EC50: < 50 nM
[6]
  EC50: < 50 nM

## Cc1c(COC(C)(C)C(=O)NCc2ccc(C(=O)O)cc2)nn(-c2ccccc2Cl)c1-c1ccc(C(F)(F)F)cc1
[7]
  IC50: 1300 nM

## COc1cc2c(C(=O)N3CCCCC3)cn(-c3noc4ccc(C)cc34)c(=O)c2cc1OC
[8]
  IC50: 38 nM

## O=C1CC(O)(C(F)(F)F)c2c(-c3ccccc3)n[nH]c2N1 (stereo not given)
[1]
  IC50: < 1000 nM

## O=C1CC(O)(C(F)(F)F)c2c(-c3cccc(F)c3)n[nH]c2N1 (stereo not given)
[1]
  IC50: < 1000 nM

## O=C(Nc1nc2ccccc2[nH]1)C1CC1c1ccccc1 (stereo not given)
[4]
  IC50: < 10 nM

## Cc1cccc(CN2CCCCC2c2cc3ccccc3[nH]2)c1 (stereo not given)
[2]
  IC50: < 500 nM

## CCC1CC1(NC(=O)c1ccc(OC)c(OCCc2cccc(C)c2)c1)C(=O)O (stereo not given)
[3]
  IC50: 100 nM

## Cc1c(COC(C)(C)C(=O)NCc2ccc(C(=O)O)cc2)nn(-c2ccc(Cl)cc2Cl)c1-c1ccc(Cl)cc1
[9]
  IC50: 2900 nM
[7]
  IC50: 1300 nM

## COc1ccc(C(=O)NC2(C(=O)O)CCC(C)C2)cc1OCCc1cccc(C)c1 (stereo not given)
[3]
  IC50: 100 nM

## O=C1CC(O)(C(F)(F)F)c2c(-c3ccncc3)n[nH]c2N1 (stereo not given)
[1]
  IC50: < 1000 nM

## O=C1CC(O)(C(F)(F)F)c2c(-c3cccs3)n[nH]c2N1 (stereo not given)
[1]
  IC50: < 1000 nM

## CC(OC(=O)Nc1c(-c2ccc(-c3ccc(C4(C(=O)O)CC4)cc3)cc2)oc2cnccc12)c1ccccc1 (stereo not given)
[5]
  EC50: < 50 nM
[6]
  EC50: < 50 nM

## CC1=C(NC(=O)OC(C)c2ccccc2Cl)C(c2ccc(CSCCC(=O)O)cc2)ON1 (stereo not given)
[10]
  Ki: 6420 nM

## O=C(Nc1nc2ccccc2[nH]1)C1CC1c1ccccc1Cl (stereo not given)
[4]
  IC50: 10 nM

## COc1ccc(C(=O)NC2(C(=O)O)CCCCCC2)cc1OCCc1cccc(Cl)c1
[3]
  IC50: 100 nM

## O=C(Nc1nc2cc(C(F)(F)F)ccc2[nH]1)C1CC1c1ccccc1 (stereo not given)
[4]
  IC50: 10 nM

## CC(OC(=O)Nc1c(-c2ccc(-c3ccc(C4(C(=O)O)CC4)cc3)cc2)oc2cnccc12)c1ccccc1Cl (stereo not given)
[5]
  EC50: < 50 nM
[6]
  EC50: < 50 nM

## O=C1CC(O)(C(F)(F)F)c2c(-c3cccc(Br)c3)n[nH]c2N1 (stereo not given)
[1]
  IC50: < 1000 nM

## CSc1ccc(C(=O)NC2(C(=O)O)Cc3ccccc3C2)cc1OCCc1cccc(C)c1
[3]
  IC50: 100 nM

## O=C1CC(O)(C(F)(F)F)c2c(-c3ccc(F)cc3)n[nH]c2N1 (stereo not given)
[1]
  IC50: < 1000 nM

## Cc1c(COC(C)(C)C(=O)NCc2ccc(C(=O)O)cc2)nn(-c2ccc(Cl)cc2Cl)c1-c1ccc(C(F)(F)F)cc1
[7]
  IC50: 30 nM

## CCN1CCCc2ccc(-n3cc(C(=O)N4CCCCC4)c4cc(OC)c(OC)cc4c3=O)cc21
[8]; filed as antagonist
  IC50: 38 nM
